Measured values as given in patent publication US5981507A, “Polymeric carriers linked to nucleotide analogues via a phosphoramide bond” (Advanced Magnetics, Inc., priority 1996, dated 1999).
Like-named read-outs stand apart in the source and are kept apart here.

What was measured:
HBV [1] = experiment: Antiviral activity on HBV replication in 2.2.15 cells (blot hybridization of virion DNA and replicative intermediates); type: cell-based; settings: for EC90: Hepatitis B virus, 90% inhibition of viral replication
Protocol: A common method of evaluating the success of antiviral and anticancer agents is by measuring the efficacy and toxicity in tissue culture systems. The antiviral activity of the macromolecular prodrug made according to the teachings in Example 40 was evaluated in […], a common assay for evaluating efficacy and toxicity of agent for Hepatitis B, as described in detail in Example 42.
(§1) The antiviral activities and cytotoxicity of a macromolecular prodrug of Dextran-araA made according to the teachings in Example 40 and the parent nucleoside analog araA were evaluated using […] (obtained from transfection of the Hep G2 human hepatoblastoma cell line with HBV) as described by Korba and Gerin (Korba B E, Gerin J L., Antiviral Research 1992; 19:55-70.) It is standard system widely used to compare the safety and efficacy of drugs for the treatment of HBV. The data for β-L-FTC,a nucleoside analog with pharmacological properties similar to Lamivudine (3TC), in the same system are shown for comparison. Lamivudine is a recently developed nucleoside analog that has been approved by the U.S. FDA for the treatment of HIV and has shown promise in extensive clinical trials against HBV
(§2) Briefly, the test compounds were added to confluent cultures of 2.2.15 cells every 24 hours for nine consecutive days in fresh culture media (RPMI 1640 with 2% fetal bovine serum, Gibco Inc., Grand Island N.Y. U.S.A.). The amount of extracellular HBV virion DNA and intracellular HBV replication intermediates were determined using quantitative blot hybridization analyses (dot, Southern and northern blots, respectively, Korba B E, Gerin J L., Antiviral Research 1992; 19:55-70; Korba B E, Milman., Antiviral Research 1991; 15:217-228).
Efficacy was determined by the concentrations of agent giving 90% inhibition of viral replication (EC90) as measured in changes of HBV virion DNA and replicative intermediates. Cytotoxicity caused by the agents was measured by the uptake of neutral red dye. The cytotoxic concentration (CC50), was considered to be the concentration at which 50% of the cells took up due the dye. The selectivity index (SI, CC50 /EC90) is measure of drug toxicity in relation to drug efficacy.

[2] = Cytotoxicity in 2.2.15 cells (uptake of neutral red dye); type: cell-based; settings: human, nine daily additions
Protocol: as §1
as §2, with “15:217-228). […]” for “15:217-228).”

[3] = background art; cited from earlier work
2.2.15 cells = settings: β-L-FTC; Schinazi et al. Antimicrob. Agent Chem (1994) 38, 2172; cited from earlier work
HBV [4] = settings: β-L-FTC, Schinazi et al. 1994, cited from earlier work
[5] = Intracellular RI DNA (values in parentheses)

Nc1ncnc2c1ncn2[C@@H]1O[C@H](CO)[C@@H](O)[C@@H]1O [araA]
SI (CC50/EC90) (HBV [1]; Extracellular DNA): 11 | EC90 (HBV [1]; Extracellular DNA (HBV virion)): 17 ± 1.9 µM | EC90 (HBV [1]; [5]): 25 ± 2.1 µM | SI (CC50/EC90) (HBV [1]; [5]): 7.5 | SI (rounded) (HBV [1]; text statement on the SI of Table 3): about 10 | CC50 [2]: 188 ± 20 µM

O=c1[nH]cnc2c1ncn2[C@@H]1O[C@H](CO)[C@@H](O)[C@@H]1O [arahypoxanthine]
antiviral effect [3]: little antiviral effect

Nc1nc(=O)n([C@@H]2CS[C@H](CO)O2)cc1F [β-L-FTC]
CC50 (2.2.15 cells): 746 µM | EC90 (HBV [4]; Extracellular DNA): 1.1 µM | SI (CC50/EC90) (HBV [4]; Extracellular DNA): 678 | EC90 (HBV [4]; Intracellular RI DNA): 0.39 µM | SI (CC50/EC90) (HBV [4]; Intracellular RI DNA): 1913
